Here are results for 27 compounds from patent US9056876B2, “Substituted 1H-pyrazolo[3′,4′,4,5]thieno[2,3-b]pyridin-3-amine analogs as positive allosteric modulators of the muscarinic acetylcholine receptor M4” (VANDERBILT UNIVERSITY, priority 2011, dated 2015).

This assay deals with T1, mAChR M4 (UniProt P08173).
T1 construct: hM1 and hM4 cDNAs were purchased from Missouri S&T cDNA Resource
T1 sequence (P08173 1-479): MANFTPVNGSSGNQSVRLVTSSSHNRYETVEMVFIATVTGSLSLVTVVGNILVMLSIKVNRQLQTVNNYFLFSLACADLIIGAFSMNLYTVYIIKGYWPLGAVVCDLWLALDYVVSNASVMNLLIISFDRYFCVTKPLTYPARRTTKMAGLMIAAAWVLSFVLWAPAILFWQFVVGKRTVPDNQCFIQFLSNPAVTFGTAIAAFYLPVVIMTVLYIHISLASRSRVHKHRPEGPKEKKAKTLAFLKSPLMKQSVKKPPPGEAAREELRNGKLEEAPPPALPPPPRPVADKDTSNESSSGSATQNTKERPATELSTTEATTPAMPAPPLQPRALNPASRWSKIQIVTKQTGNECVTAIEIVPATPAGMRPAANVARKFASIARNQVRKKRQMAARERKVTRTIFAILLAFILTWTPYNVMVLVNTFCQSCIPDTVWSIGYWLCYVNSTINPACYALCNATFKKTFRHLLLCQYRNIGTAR
The assay can be described thus: mAChR M4 cell-based functional assay (calcium mobilization, Fluo-4, FDSS). Particulars: for Emax (%)*: % ACh maximum at 30 μM; for pEC50: positive allosteric modulator activity, EC20 acetylcholine response; for pEC50 / EC50: CHO-K1 cells; for EC50: positive allosteric modulator activity: concentration-dependent increase in the EC20 acetylcholine response, >10 μM estimated for low potency (no plateau). A digest of the protocol: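 Compound responses (11-point, 1:3 series) were followed as calcium fluorescence ratio on FDSS in Gqi5-coupled M4 CHO-K1 cells (human or rat) loaded with Fluo-4. Acetylcholine followed at EC20 (144 s) then EC80 (230 s). EC50/Emax from four-parameter logistic fits of direct, EC20-potentiating or EC80-inhibiting effects.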

By pEC50 is commonly meant the EC50 on a negative log10 scale, so that one unit is a factor of ten. By EC50 is commonly meant the concentration giving half of the maximal effect. As for `COCCn1nc(NCc2ccc(S(C)(=O)=O)cc2)c2sc3nc(C)cc(C)c3c21` [Compound 119, 1-(2-methoxyethyl)-6,8-dimethyl-N-(4-(methylsulfonyl)benzyl)-1H-pyrazolo[3′,4′:4,5]thieno[2,3-b]pyridin-3-amine], the “Emax (%)*” value was found to be 65%, the pEC50 stood at 5.92 and the EC50 was 1.2 µM.

In the case of `Cc1cc(C)c2c(n1)sc1c(NC3CCOCC3)n[nH]c12` [Compound 13, 6,8-dimethyl-N-(tetrahydro-2H-pyran-4-yl)-1H-pyrazolo[3′,4′:4,5]thieno[2,3-b]pyridin-3-amine], the “Emax (%)*” value was determined as 37%, the pEC50 is 5.14 and the EC50 is 7.32 µM.

Regarding `Cc1nc2sc3c(NCc4ccc(F)c(F)c4)n[nH]c3c2c(C)c1Cl` [Compound 146, 7-chloro-N-(3,4-difluorobenzyl)-6,8-dimethyl-1H-pyrazolo[3′,4′:4,5]thieno[2,3-b]pyridin-3-amine], the pEC50 is given as less than 5.00 and the EC50 is more than 10 µM.

As for `Cc1cc(C)c2c(n1)sc1c(NC3CCSCC3)nn(CCO)c12` [Compound 114, 2-(6,8-dimethyl-3-((tetrahydro-2H-thiopyran-4-yl)amino)-1H-pyrazolo[3′,4′:4,5]thieno[2,3-b]pyridin-1-yl)ethanol], the “Emax (%)*” value turned out to be 70%, the pEC50 came to 6.43 and the EC50 was 0.37 µM.

Consider `Cc1cc(C)c2c(n1)sc1c(NC(C)C)n[nH]c12` [Compound 11, N-isopropyl-6,8-dimethyl-1H-pyrazolo[3′,4′:4,5]thieno[2,3-b]pyridin-3-amine], for which the “Emax (%)*” value was 59%, the negative-log EC50 (pEC50) is given as 5.62 and the EC50 is 2.41 µM.

For the compound `Cc1cc(C)c2c(n1)sc1c(NC3CCC(NC(=O)OC(C)(C)C)CC3)n[nH]c12` (centres unmarked) [Compound 139, tert-butyl (4-((6,8-dimethyl-1H-pyrazolo[3′,4′:4,5]thieno[2,3-b]pyridin-3-yl)amino)cyclohexyl)carbamate], the pEC50 is less than 5.00 and the EC50 is more than 10 µM.

Regarding `Cc1ccc2c(n1)sc1c(NCc3ccc(Cl)cc3)nn(C)c12` [Compound 56, N-(4-chlorobenzyl)-1,6-dimethyl-1H-pyrazolo[3′,4′:4,5]thieno[2,3-b]pyridin-3-amine], the “Emax (%)*” value worked out at 56%, the pEC50 is listed as less than 5.00 and the 50% effective concentration (EC50) is more than 10 µM.

Consider `Cc1cc(C)c2c(n1)sc1c(NCc3nccn3C)nn(C)c12` [Compound 163, 1,6,8-trimethyl-N-((1-methyl-1H-imidazol-2-yl)methyl)-1H-pyrazolo[3′,4′:4,5]thieno[2,3-b]pyridin-3-amine], for which the pEC50 is listed as less than 5.00 and the EC50 is more than 10 µM.

Regarding `Cc1nc2sc3c(NCc4ccc(F)cc4)n[nH]c3c2c(C)c1Cl` [Compound 145, 7-chloro-N-(4-fluorobenzyl)-6,8-dimethyl-1H-pyrazolo[3′,4′:4,5]thieno[2,3-b]pyridin-3-amine], the negative logarithm of the EC50 (pEC50) is given as less than 5.00 and the EC50 is more than 10 µM.

With `COCCn1nc(NCc2ccc(OC)cc2)c2sc3nc(C)cc(C)c3c21` [Compound 118, N-(4-methoxybenzyl)-1-(2-methoxyethyl)-6,8-dimethyl-1H-pyrazolo[3′,4′:4,5]thieno[2,3-b]pyridin-3-amine], the “Emax (%)*” value is 60%, the pEC50 is less than 5.00 and the EC50 was more than 10 µM.

Turning to `Cc1nc2sc3c(Nc4ccncc4)nn(C)c3c2c(C)c1Cl` [Compound 148, 7-chloro-1,6,8-trimethyl-N-(pyridin-4-yl)-1H-pyrazolo[3′,4′:4,5]thieno[2,3-b]pyridin-3-amine], the pEC50 was less than 5.00 and the 50% effective concentration (EC50) was more than 10 µM.

Regarding `Cc1cc(C)c2c(n1)sc1c(NCC3CCCO3)nn(C)c12` (centres unmarked) [Compound 83, 1,6,8-trimethyl-N-((tetrahydrofuran-2-yl)methyl)-1H-pyrazolo[3′,4′:4,5]thieno[2,3-b]pyridin-3-amine], the “Emax (%)*” value was 52%, the pEC50 turned out to be 6.02 and the EC50 is 0.96 µM.

As for `Cc1cc(C)cc(CNc2nn(C)c3c2sc2nc(C)cc(C)c23)c1` [Compound 58, N-(3,5-dimethylbenzyl)-1,6,8-trimethyl-1H-pyrazolo[3′,4′:4,5]thieno[2,3-b]pyridin-3-amine], the “Emax (%)*” value was determined as 37%, the pEC50 is listed as less than 5.00 and the EC50 was more than 10 µM.

As to `Cc1cc(C)c2c(n1)sc1c(NCc3ccccc3)n[nH]c12` [Compound 5, N-benzyl-6,8-dimethyl-1H-pyrazolo[3′,4′:4,5]thieno[2,3-b]pyridin-3-amine], the “Emax (%)*” value was found to be 58%, the pEC50 is on record as 5.97 and the EC50 was 1.07 µM.

Consider `Cc1cc(C)c2c(n1)sc1c(NC3CCOC3)nn(CCO)c12` (centres unmarked) [Compound 108, 2-(6,8-dimethyl-3-((tetrahydrofuran-3-yl)amino)-1H-pyrazolo[3′,4′:4,5]thieno[2,3-b]pyridin-1-yl)ethanol], for which the “Emax (%)*” value was determined as 69%, the negative logarithm of the EC50 (pEC50) worked out at 6.09 and the 50% effective concentration (EC50) was 0.82 µM.

As for `Cc1ccc2c(n1)sc1c(NCc3ccccc3)nn(C)c12` [Compound 53, N-benzyl-1,6-dimethyl-1H-pyrazolo[3′,4′:4,5]thieno[2,3-b]pyridin-3-amine], the “Emax (%)*” value is reported as 70%, the negative logarithm of the EC50 (pEC50) is 6.08 and the concentration giving a half-maximal response (EC50) was 0.84 µM.

As for `Cc1ccc2c(n1)sc1c(NCc3ccncc3)nn(C)c12` [Compound 67, 1,6-dimethyl-N-(pyridin-4-ylmethyl)-1H-pyrazolo[3′,4′:4,5]thieno[2,3-b]pyridin-3-amine], the “Emax (%)*” value turned out to be 80%, the pEC50 is reported as 5.96 and the half-maximal effective concentration (EC50) is 1.1 µM.

As to `Cc1cc(C)c2c(n1)sc1c(NC3CNC3)nn(C)c12` [Compound 102, N-(azetidin-3-yl)-1,6,8-trimethyl-1H-pyrazolo[3′,4′:4,5]thieno[2,3-b]pyridin-3-amine], the “Emax (%)*” value amounted to 69%, the pEC50 was found to be 5.96 and the EC50 was 1.1 µM.

For `COCCn1nc(N)c2sc3nc(C)cc(C)c3c21` [Compound 165, 1-(2-methoxyethyl)-6,8-dimethyl-1H-pyrazolo[3′,4′:4,5]thieno[2,3-b]pyridin-3-amine], the negative-log EC50 (pEC50) was less than 5.00 and the EC50 is more than 10 µM.

Take `Cc1ccnc(Nc2nn(C)c3c2sc2nc(C)c(Cl)c(C)c23)n1` [Compound 28, 7-chloro-1,6,8-trimethyl-N-(4-methylpyrimidin-2-yl)-1H-pyrazolo[3′,4′:4,5]thieno[2,3-b]pyridin-3-amine]: the “Emax (%)*” value came out at 36%, the negative logarithm of the EC50 (pEC50) is recorded as less than 5.00 and the 50% effective concentration (EC50) is more than 10 µM.

In the case of `COc1ccc(CNc2n[nH]c3c2sc2nc(C)ccc23)cc1` [Compound 72, N-(4-methoxybenzyl)-6-methyl-1H-pyrazolo[3′,4′:4,5]thieno[2,3-b]pyridin-3-amine], the “Emax (%)*” value is listed as 59%, the pEC50 worked out at 5.74 and the EC50 was 1.8 µM.

With `Cc1ccc2c(n1)sc1c(NCC3CC3)n[nH]c12` [Compound 43, N-(cyclopropylmethyl)-6-methyl-1H-pyrazolo[3′,4′:4,5]thieno[2,3-b]pyridin-3-amine], the “Emax (%)*” value turned out to be 64%, the pEC50 was found to be 5.35 and the EC50 was 4.5 µM.

With `Cc1cc(C)c2c(n1)sc1c(NCc3ccc(F)c(F)c3)nn(C)c12` [Compound 60, N-(3,4-difluorobenzyl)-1,6,8-trimethyl-1H-pyrazolo[3′,4′:4,5]thieno[2,3-b]pyridin-3-amine], the “Emax (%)*” value is reported as 63%, the pEC50 is less than 5.00 and the EC50 was more than 10 µM.

In the case of `Cc1cc(C)c2c(n1)sc1c(NC3CCSCC3)n[nH]c12` [Compound 12, 6,8-dimethyl-N-(tetrahydro-2H-thiopyran-4-yl)-1H-pyrazolo[3′,4′:4,5]thieno[2,3-b]pyridin-3-amine], the “Emax (%)*” value is recorded as 38%, the pEC50 amounted to 5.36 and the 50% effective concentration (EC50) was 4.39 µM.

`Cc1cc(C)cc(CNc2n[nH]c3c2sc2nc(C)c(Cl)c(C)c23)c1` [Compound 144, 7-chloro-N-(3,5-dimethylbenzyl)-6,8-dimethyl-1H-pyrazolo[3′,4′:4,5]thieno[2,3-b]pyridin-3-amine]: the negative-log EC50 (pEC50) is less than 5.00 and the concentration giving a half-maximal response (EC50) was more than 10 µM.

Turning to `Cc1cc(C)c2c(n1)sc1c(NC(=O)C3CC3)nn(C)c12` [Compound 46, N-(1,6,8-trimethyl-1H-pyrazolo[3′,4′:4,5]thieno[2,3-b]pyridin-3-yl)cyclopropanecarboxamide], the “Emax (%)*” value turned out to be 44%, the pEC50 was less than 5.00 and the half-maximal effective concentration (EC50) is more than 10 µM.

For `Cc1cc(C)c2c(n1)sc1c(NCc3sc(C)nc3C)nn(C)c12` [Compound 99, N-((2,4-dimethylthiazol-5-yl)methyl)-1,6,8-trimethyl-1H-pyrazolo[3′,4′:4,5]thieno[2,3-b]pyridin-3-amine], the “Emax (%)*” value worked out at 66%, the pEC50 turned out to be 7.03 and the 50% effective concentration (EC50) is 0.093 µM.
